Our source for the TGI and GI50 values is PubChem BioAssay (NCI).

Each structure is given as a SMILES string. “And” between values parts separate entries of the source, which are not always exact repeats. Equal entries are not always repeated.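 Step 1: Grow cells in 96-well plates. Step 2: Expose to compound for 48 hours at 5 concentrations. Step 3: Interpolate endpoints linearly; if unreached, use highest concentration. GI50 is the concentration that inhibits growth by half. TGI is the concentration that stops growth completely.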

Common to all, as to assay: growth of human tumour cells (NCI), 48 h
The test system of test [1] is TK-10 renal.
Test [2] concerns UACC-257 melanoma.
Test [3] concerns HCT-15 colon.
In test [4] the test system is OVCAR-4 ovarian.
Test [5] has as its system DU-145 prostate.
Test [6] deals with MOLT-4 leukemia.
In test [7] the test system is MDA-MB-231 breast.
The test system of test [8] is LOX IMVI melanoma.
In test [9] the test system is HOP-92 NSCLC.
Test [10] relates to UO-31 renal.

As for `C/C(O)=C(/C=N/C(=S)Nc1ccc(S(N)(=O)=O)cc1)C(=O)Nc1ccccc1C`, the TGI in [1], in test [2], in [3], in [4], in test [5] and in [6] was over 100 µM each time. Moreover, the TGI is over 100 µM in test [7], 48.8 µM in test [8], over 100 µM in test [9] and over 100 µM in test [10].

`Cc1cc(NCCCN(C)C)c2ccc3c(ccc4c(NCCCN(C)C)cc(C)nc43)c2n1`: the GI50 is 0.24 µM in test [1]; 0.199 µM in test [2]; 0.191 µM in test [3]; 0.162 µM in test [4]; 0.159 µM in test [5]; 0.27 µM in [6]. Further, the GI50 was 0.175 µM in test [7], 0.176 µM in [8], 0.0665 µM in test [9] and 0.231 µM in test [10]. The TGI in [1] is 0.573 µM; in [2], 0.499 µM; in test [3], 0.543 µM; in [4] it was 0.508 µM; in test [5], 0.436 µM; in test [7], 0.468 µM. For the same compound, the TGI in [8] came out at 0.401 µM; in test [9], 0.298 µM; in [10] it was 0.557 µM.

For the compound `O=C1NNC2(C(=O)N1)c1ccccc1-c1ccccc12`, the TGI in test [1], in test [2], in test [3], in test [4], in [5] and in test [6] was over 10 µM throughout. Moreover, the TGI in test [7], in test [8], in test [9] and in test [10] was over 10 µM each time.

As for `O=C(Nc1ccc(Br)cc1F)c1cc(I)ccc1O`, the GI50 in [1] was 4.77 µM; in test [2], 2.43 µM; in test [3], 2.94 µM; in test [4], 3.16 µM; in [5] it was 3.89 µM; in test [6] it was 2.66 µM. The GI50 in [7] is 1.77 µM; in test [8] it was 2.78 µM; in test [9] it was 1.08 µM; in [10], 1.52 µM. Also, the TGI was 9.43 µM in [1]; 6.88 µM in test [2]; 12.7 µM in [3]; over 100 µM in [4]; over 100 µM in [5]; 7.48 µM in test [6]. The TGI in [7] was determined as 6.28 µM; in [8] it was 14.3 µM; in test [9] it was 4.8 µM; in test [10] it was 7.51 µM.

With `Cc1c(Cl)cccc1C(=O)Nc1nc2c(s1)CN(C(=O)c1ccc(C(F)(F)F)cc1)CC2`, the GI50 in [1] is 0.934 µM; in test [2], 2.36 µM; in [3] it was 0.0295 µM; in test [4], 0.663 µM; in [5], 0.194 µM; in [6], 0.193 µM. The GI50 in test [7] was 0.344 µM; in test [8] it was 0.163 µM; in [9], 0.877 µM; in test [10] it was 0.507 µM. Moreover, the TGI was over 50 µM in [1]; 23.9 µM in [2]; 21.2 µM in test [3]; over 50 µM in [4]; over 50 µM in test [5]; over 50 µM in test [6]. For the same compound, the TGI in [7] was over 50 µM; in test [8], over 23.1 µM; in test [9], 36.4 µM; in test [10], over 50 µM.

With `CC(=O)N1CC(C)(C)c2c(C)c(O)c(C)c(C)c21`, the TGI in test [1], in test [2], in test [3], in [4], in test [5] and in test [6] was over 100 µM throughout. The TGI in test [7], in test [8], in test [9] and in test [10] was over 100 µM in each case.

Regarding `O=C1C(Nc2ccc(Cl)cc2)=C(I)C(=O)c2ncccc21`, the GI50 in test [1] is 1.59 µM; in test [2], 1.29 µM; in [3] it was 0.373 µM; in [4], 0.989 µM; in test [5], 1.37 µM; in test [6], 0.964 µM. The GI50 was 1.31 µM in test [7], 0.624 µM in test [8], 1.43 µM in test [9] and 0.473 µM in test [10]. In addition, the TGI worked out at 2.94 µM in test [1]; 2.6 µM in [2]; 1.82 µM in test [3]; 2.19 µM in test [4]; 3.37 µM in test [5]; 9.32 µM in test [6]. Also, the TGI was found to be 2.7 µM in [7], 2.11 µM in test [8], 2.9 µM in test [9] and 1.74 µM in test [10].

`O=C1Nc2ccc(Br)cc2C1=Nc1cccnc1`: the TGI in [1] was over 100 µM; in test [2] it was 55.9 µM; in [3] it was 59.6 µM; in test [4], 25.1 µM; in test [5], over 100 µM; in test [6] it was 64.5 µM. Moreover, the TGI was 37.6 µM in test [7], 34.8 µM in test [8], over 100 µM in test [9] and 29.7 µM in test [10].

On to `Cc1cccc(/C=N/NC(=S)N2CCCC2)n1`, for which the GI50 was 4.82 µM in [1]; 0.586 µM in [3]; 0.98 µM in test [5]; 1.14 µM in test [7]; 0.536 µM in test [9]; 0.748 µM in [10]. The TGI in test [1] is 1.35 µM; in test [2] it was 9.51 µM and 12.1 µM; in test [3] it was over 100 µM; in [4], 6.95 µM; in [6] it was over 100 µM; in [8] it was over 41.4 µM. Besides, the TGI in test [10] is 4.19 µM.

Regarding `Cc1ccccc1OCC(O)CN1CCN(c2ccc(Cl)cc2)CC1` (stereo not given), the GI50 in test [2] is 20.6 µM; in test [3], 19.2 µM; in test [4] it was 16 µM; in test [5], 17.9 µM; in test [6], 14.7 µM; in [7], 14.4 µM. Besides, the GI50 in [8] was 15.3 µM; in test [9] it was 10 µM; in test [10], 6.75 µM. Besides, the TGI stood at 37.9 µM in test [2]; 40.2 µM in test [3]; 30.2 µM in test [4]; 32.7 µM in [5]; 57.5 µM in [6]; 29.8 µM in [7]. Besides, the values for the TGI in [8], in test [9] and in test [10] were 31.3 µM, 22 µM and 20.8 µM, respectively.
